Measurements published in US10596168B2, “Antagonists of the thyroid-stimulating hormone receptor (TSHR)” (Forschungsverbund Berlin e.V., priority 2016, dated 2020).

The compounds below were run against T1, TSHR (Homo sapiens, UniProt P16473) (assay: cAMP accumulation radioimmunoassay (RIA), inhibition of TSH-induced cAMP production in HEK-293 cells stably expressing TSHR). Settings: inhibiting cAMP stimulation by TSH, radioimmunoassay.
T1 construct: expressed in transfected cells
T1 sequence (P16473 21-764): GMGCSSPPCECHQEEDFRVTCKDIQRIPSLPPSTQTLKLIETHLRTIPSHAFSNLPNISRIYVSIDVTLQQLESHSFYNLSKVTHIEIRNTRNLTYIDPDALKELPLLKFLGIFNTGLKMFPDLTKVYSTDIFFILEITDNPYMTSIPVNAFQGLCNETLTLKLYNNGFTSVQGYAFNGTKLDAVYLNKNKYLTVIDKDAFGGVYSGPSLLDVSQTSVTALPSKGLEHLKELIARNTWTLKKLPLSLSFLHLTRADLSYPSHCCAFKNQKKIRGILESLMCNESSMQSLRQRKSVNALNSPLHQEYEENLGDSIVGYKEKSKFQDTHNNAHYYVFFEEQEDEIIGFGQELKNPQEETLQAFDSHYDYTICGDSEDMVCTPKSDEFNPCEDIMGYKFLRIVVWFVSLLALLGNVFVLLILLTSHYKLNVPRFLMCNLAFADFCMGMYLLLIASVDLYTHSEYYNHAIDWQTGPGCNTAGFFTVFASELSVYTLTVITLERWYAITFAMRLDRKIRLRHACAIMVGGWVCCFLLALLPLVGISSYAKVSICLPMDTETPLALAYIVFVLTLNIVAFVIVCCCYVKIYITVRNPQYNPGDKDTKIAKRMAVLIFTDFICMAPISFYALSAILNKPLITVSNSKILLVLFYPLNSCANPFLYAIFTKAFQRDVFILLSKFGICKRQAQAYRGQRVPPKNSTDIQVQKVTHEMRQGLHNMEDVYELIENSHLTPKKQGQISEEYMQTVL
Assay type: cell-based
Design: antagonistic activity (% inhibition): concentration or dose not given beside the values
Description: HEK-293 cells stably expressing TSHR, FSHR, LHGCR or CRF1R were cultured for 48 h and stimulated for 1 h at 37° C. with stimulation buffer (DMEM supplemented with 10 mM HEPES, 0.5% BSA, 0.25 mM 3-isobutyl-1-methylxanthine) containing the ligands as indicated. After stimulation medium was aspirated and reactions were stopped by lysis of the cells with 0.1% trifluoroacetic acid, 0.005% Triton X-100 for 30 min at 4° C. Supernatants were collected and heated at 95° C. for 10 min, dried in a rotation vacuum concentrator (Alpha-RCV, Christ) and finally stored at −20° C. until use. After reconstitution and acetylation of the samples (Jäschke et al. 2006), the cAMP content was determined using cAMP-^125I-tyrosyl methyl ester (10,000 cpm, IBL) and polyclonal rabbit anti cAMP antibodies. The radioactivity of the precipitate was determined in a γ-counter.
For the Secondary Screening cAMP accumulation was measured by radioimmunoassay (RIA) in HEK-293-TSHR cells as described before.
For the secondary screening we used a very sensitive in vitro technique, the radioimmunoassay. This assay was established and performed in HEK-293 cell line stably expressing TSHR.
Therefore RIA was used to measure the cAMP accumulation upon stimulation with TSH (EC80 value) and confirmed the desired effect for S4 and S9 with a clear decrease of cAMP production.
For `Nc1ccc(N2C(=O)[C@@H]3[C@H]4C[C@H]([C@@H]5Sc6[nH]c(=O)sc6[C@@H](c6ccccc6)[C@H]45)[C@@H]3C2=O)cc1` (racemic) [Compound S79, (4aR,5R,5aS,8aS,9S,9aR,10S)-7-(4-aminophenyl)-10-phenyl-3,4a,5,5a,8a,9,9a,10-octahydro-5,9-methanothiazolo[5′,4′:5,6]thiopyrano[2,3-f]isoindole-2,6,8(7H)-trione Compound with (4aS,5S,5aR,8aR,9R,9aS,10R)-7-(4-aminophenyl)-10-phenyl-3,4a,5,5a,8a,9,9a,10-octahydro-5,9-methanothiazolo[5′,4′:5,6]thiopyrano[2,3-t]isoindole-2,6,8(7H)-trione (1:1)], the “antagonistic activity (% inhibition)” value was 29%.
For `CCOC(=O)N1CCN(c2ncc(N3C(=O)C4C(C3=O)[C@H]3C=C[C@@H]4C3)cc2[N+](=O)[O-])CC1` (some centres unmarked) [Compound S34], the “antagonistic activity (% inhibition)” value was 30%.
With `O=C1[C@@H]2[C@H]3C[C@H]([C@@H]4Sc5[nH]c(=O)sc5[C@@H](c5cccc(O)c5)[C@H]34)[C@@H]2C(=O)N1c1ccccc1` (racemic) [Compound S125, (4aR,5R,5aS,8aS,9S,9aR,10S)-10-(3-hydroxyphenyl)-7-phenyl-3,4a,5,5a,8a,9,9a,10-octahydro-5,9-methanothiazolo[5′,4′:5,6]thiopyrano[2,3-f]isoindole-2,6,8(7H)-trione compound with (4aS,5S,5aR,8aR,9R,9aS,10R)-10-(3-hydroxyphenyl)-7-phenyl-3,4a,5,5a,8a,9,9a,10-octahydro-5,9-methanothiazolo[5′,4′:5,6]thiopyrano[2,3-f]isoindole-2,6,8(7H)-trione (1:1)] the “antagonistic activity (% inhibition)” value was 34%.
`CN1CCN(c2ccc(N3C(=O)[C@@H]4[C@H]5C[C@H]([C@@H]6Sc7[nH]c(=O)sc7[C@@H](c7ccccc7)[C@H]56)[C@@H]4C3=O)cc2[N+](=O)[O-])CC1` [Compound S38, (4aS,5S,5aR,8aR,9R,9aS,10R)-7-(4-(4-methylpiperazin-1-yl)-3-nitrophenyl)-10-phenyl-3,4a,5,5a,8a,9,9a,10-octahydro-5,9-methanothiazolo[5′,4′:5,6]thiopyrano[2,3-f]isoindole-2,6,8(7H)-trione] was tested, and the “antagonistic activity (% inhibition)” value was 40%.
`COC(=O)c1cccc(N2C(=O)[C@@H]3[C@H]4C[C@H]([C@@H]5Sc6[nH]c(=O)sc6[C@@H](c6ccccc6)[C@H]45)[C@@H]3C2=O)c1` (racemic) [Compound S96, methyl 3-((4aR,5R,5aS,8aS,9S,9aR,10S)-2,6,8-trioxo-10-phenyl-3,4a,5,5a,6,8,8a,9,9a,10-decahydro-5,9-methanothiazolo[5′,4′:5,6]thiopyrano[2,3-f]isoindol-7(2H)-yl)benzoate compound with methyl 3-((4aS,5S,5aR,8aR,9R,9aS,10R)-2,6,8-trioxo-10-phenyl-3,4a,5,5a,6,8,8a,9,9a,10-decahydro-5,9-methanothiazolo[5′,4′:5,6]thiopyrano[2,3-f]isoindol-7(2H)-yl)benzoate (1:1)] was tested, and the “antagonistic activity (% inhibition)” value was 34%.
`Cc1ccc(N2C(=O)C3C4CC(C3C2=O)C2C(c3ccc(N(C)C)cc3)c3sc(=O)[nH]c3SC42)cc1` (centres unmarked) [Compound S18] was tested, and the “antagonistic activity (% inhibition)” value was 30%.
`O=C1C2C3C=CC(C3)C2C(=O)N1c1ccc(N2CCOCC2)c([N+](=O)[O-])c1` (centres unmarked) [Compound S26] was tested, and the “antagonistic activity (% inhibition)” value was 35%.
In the case of `O=C1C2C3CC(C2C(=O)N1c1cccc(C(F)(F)F)c1)C1C(c2ccccc2)c2sc(=O)[nH]c2SC31` (centres unmarked) [Compound S21], the “antagonistic activity (% inhibition)” value is reported as 55%.
For `Cc1ccc(N2C(=O)[C@@H]3[C@H]4C[C@H]([C@@H]5Sc6[nH]c(=O)sc6[C@@H](c6ccccc6)[C@H]45)[C@@H]3C2=O)cc1` (racemic) [Compound S90, (4aR,5R,5aS,8aS,9S,9aR,10S)-10-phenyl-7-(p-tolyl)-3,4a,5,5a,8a,9,9a,10-octahydro-5,9-methanothiazolo[5′,4′:5,6]thiopyrano[2,3-f]isoindole-2,6,8(7H)-trione Compound with (4aS,5S,5aR,8aR,9R,9aS,10R)-10-phenyl-7-(p-tolyl)-3,4a,5,5a,8a,9,9a,10-octahydro-5,9-methanothiazolo[5′,4′:5,6]thiopyrano[2,3-f]isoindole-2,6,8(7H)-trione (1:1)], the “antagonistic activity (% inhibition)” value was 53%.
For `O=C1[C@@H]2[C@H]3C[C@H]([C@@H]4Sc5[nH]c(=O)sc5[C@@H](c5ccccc5)[C@H]34)[C@@H]2C(=O)N1c1ccc(O)cc1` (racemic) [Compound S100, (4aR,5R,5aS,8aS,9S,9aR,10S)-7-(4-hydroxyphenyl)-10-phenyl-3,4a,5,5a,8a,9,9a,10-octahydro-5,9-methanothiazolo[5′,4′:5,6]thiopyrano[2,3-f]isoindole-2,6,8(7H)-trione compound with (4aS,5S,5aR,8aR,9R,9aS,10R)-7-(4-hydroxyphenyl)-10-phenyl-3,4a,5,5a,8a,9,9a,10-octahydro-5,9-methanothiazolo[5′,4′:5,6]thiopyrano[2,3-f]isoindole-2,6,8(7H)-trione (1:1)], the “antagonistic activity (% inhibition)” value was 34%.
With `O=C1C2C3CC(C2C(=O)N1c1ccccc1)C1C(c2ccc(O)cc2)c2sc(=O)[nH]c2SC31` (centres unmarked) [Compound S19] the “antagonistic activity (% inhibition)” value was 50%.
For `O=C1[C@@H]2[C@H]3C[C@H]([C@@H]4Sc5[nH]c(=O)sc5[C@@H](c5ccc(O)cc5)[C@H]34)[C@@H]2C(=O)N1c1ccccc1` (racemic) [Compound S122, (4aR,5R,5aS,8aS,9S,9aR,10S)-10-(4-hydroxyphenyl)-7-phenyl-3,4a,5,5a,8a,9,9a,10-octahydro-5,9-methanothiazolo[5′,4′:5,6]thiopyrano[2,3-f]isoindole-2,6,8(7H)-trione compound with (4aS,5S,5aR,8aR,9R,9aS,10R)-10-(4-hydroxyphenyl)-7-phenyl-3,4a,5,5a,8a,9,9a,10-octahydro-5,9-methanothiazolo[5′,4′:5,6]thiopyrano[2,3-f]isoindole-2,6,8(7H)-trione (1:1)], the “antagonistic activity (% inhibition)” value was 38%.
`CC(=O)c1ccc(N2C(=O)[C@@H]3[C@H]4C[C@H]([C@@H]5Sc6[nH]c(=O)sc6[C@@H](c6ccccc6)[C@H]45)[C@@H]3C2=O)cc1` (racemic) [Compound S80, (4aR,5R,5aS,8aS,9S,9aR,10S)-7-(4-acetylphenyl)-10-phenyl-3,4a,5,5a,8a,9,9a,10-octahydro-5,9-methanothiazolo[5′,4′:5,6]thiopyrano[2,3-f]isoindole-2,6,8(7H)-trione Compound with (4aS,5S,5aR,8aR,9R,9aS,10R)-7-(4-acetylphenyl)-10-phenyl-3,4a,5,5a,8a,9,9a,10-octahydro-5,9-methanothiazolo[5′,4′:5,6]thiopyrano[2,3-f]isoindole-2,6,8(7H)-trione (1:1)] was tested, and the “antagonistic activity (% inhibition)” value was 25%.
With `CCOC(=O)N1CCN(c2ncc(N3C(=O)[C@@H]4[C@H](C3=O)[C@H]3C=C[C@@H]4C3)cc2[N+](=O)[O-])CC1` [Compound S35] the “antagonistic activity (% inhibition)” value was 15%.
